Consider 16 compounds from patent US10364256B2 (GlaxoSmithKline Intellectual Property Development Limited, priority 2015, dated 2019).

The target in experiment [1] is T1, full length Keap1 protein / full length NRF2 protein (Homo sapiens, UniProt Q14145).
T1 construct: full length NRF2 protein and full length Keap1 protein (Keap1 exists a dimer) are used; His
As to the kind of experiment: NRF2-Keap1 TR-FRET Low Protein Assay. The class given is binding. The note with it: 1.25 nM Keap1 FlagHis and 2.5 nM biotin-NRF2 added. The essentials: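 Flag-tagged full-length Keap1 was preincubated with compound (3-fold series) for 2.25 h at 37 °C in Tris pH 8.0/MgCl2/NaCl/BSA/DTT/CHAPS. Biotin-Avi-NRF2 (added at 2.5 nM) was then bound for 1.25 h at 4 °C. Eu-streptavidin/anti-Flag-APC TR-FRET (665/615 nm) was read after 1 h at RT, and pIC50 came from a four-parameter fit.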
(In TR-FRET formats the signal depends on donor and acceptor labels being close together.)

Experiment [2] concerns the target T1, full length Keap1 protein / full length NRF2 protein. As to the kind of experiment: NRF2-Keap1 TR-FRET Assay. It counts as binding. Particulars: 25 nM Keap1-FlagHis and 50 nM biotin-NRF2 added. A digest of the protocol:
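Full-length Keap1-FlagHis preincubated with compound 2.25 h at 37 °C, then biotin-NRF2 added for 1.25 h at 4 °C, in Tris pH 8.0 with MgCl2, NaCl, BSA, DTT, CHAPS. TR-FRET 665/615 nm ratio normalised to with- and without-protein 1% DMSO controls; pIC50 from four-parameter fit.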

T1 sequence (Q14145 whole entry): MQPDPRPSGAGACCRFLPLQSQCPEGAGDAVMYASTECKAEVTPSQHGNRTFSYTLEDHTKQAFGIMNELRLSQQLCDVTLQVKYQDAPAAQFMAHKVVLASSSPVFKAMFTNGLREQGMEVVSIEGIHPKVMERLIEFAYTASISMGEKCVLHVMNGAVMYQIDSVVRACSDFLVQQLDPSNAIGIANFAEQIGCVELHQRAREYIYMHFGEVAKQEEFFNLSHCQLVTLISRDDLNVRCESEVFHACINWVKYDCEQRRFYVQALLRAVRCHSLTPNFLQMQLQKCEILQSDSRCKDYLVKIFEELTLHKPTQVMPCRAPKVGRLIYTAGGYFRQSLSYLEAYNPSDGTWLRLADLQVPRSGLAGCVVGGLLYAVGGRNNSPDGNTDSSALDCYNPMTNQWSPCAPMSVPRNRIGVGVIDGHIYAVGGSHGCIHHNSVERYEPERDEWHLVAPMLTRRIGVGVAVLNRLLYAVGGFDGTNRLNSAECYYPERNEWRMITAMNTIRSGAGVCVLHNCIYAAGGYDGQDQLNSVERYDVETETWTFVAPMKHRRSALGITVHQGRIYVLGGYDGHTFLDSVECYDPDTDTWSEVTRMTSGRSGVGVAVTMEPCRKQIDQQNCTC

A word on the IC50: it is the point on the concentration scale where inhibition reaches its midpoint. A low value points to greater potency in that assay. Take `Cn1cc([C@@H]2C[C@H]2c2c(C(=O)O)cnn2-c2cccc(-c3cccc(OCC4CCCSC4)c3)c2)nn1` (mixture of isomers) [Example 144, 5-((1,2-trans)-2-(1-Methyl-1H-1,2,3-triazol-4-yl)cyclopropyl)-1-(3′-((tetrahydro-2H-thiopyran-3-yl)methoxy)-[1,1′-biphenyl]-3-yl)-1H-pyrazole-4-carboxylic Acid]: the IC50 in experiment [1] fell in the range of 10 to 100 nM; in experiment [2], 100 to 1000 nM.
For `Cn1cc([C@@H]2C[C@H]2c2c(C(=O)O)cnn2-c2cccc(-c3cccc(OCC4CCC(F)(F)CC4)c3)c2)nn1` (racemic) [Example 145, 1-(3′-((4,4-Difluorocyclohexyl)methoxy)-[1,1′-biphenyl]-3-yl)-5-((1,2-trans)-2-(1-methyl-1H-1,2,3-triazol-4-yl)cyclopropyl)-1H-pyrazole-4-carboxylic acid] the same measures were 10 to 100 nM and 100 to 1000 nM.
In the case of `Cn1cc([C@@H]2C[C@H]2c2c(C(=O)O)cnn2-c2cccc(-c3cccc(OC[C@H]4CC[C@H](C(F)(F)F)CC4)c3)c2)nn1` (racemic) [Example 146, 5-((1,2-trans)-2-(1-Methyl-1H-1,2,3-triazol-4-yl)cyclopropyl)-1-(3′-(((1r,4R)-4-(trifluoromethyl)cyclohexyl)methoxy)-[1,1′-biphenyl]-3-yl)-1H-pyrazole-4-carboxylic acid], the IC50 in experiment [1] fell in the range of 10 to 100 nM; in experiment [2], 100 to 1000 nM.
As to `Cn1cc([C@@H]2C[C@H]2c2c(C(=O)O)cnn2-c2cccc(-c3cccc(OCC4CCCC(C(F)(F)F)C4)c3)c2)nn1` (mixture of isomers) [Example 147, 5-((1,2-trans)-2-(1-Methyl-1H-1,2,3-triazol-4-yl)cyclopropyl)-1-(3′-((3-(trifluoromethyl)cyclohexyl)methoxy)-[1,1′-biphenyl]-3-yl)-1H-pyrazole-4-carboxylic acid], the IC50 fell in the range of 10 to 100 nM in experiment [1] and 100 to 1000 nM in experiment [2].
Regarding `Cn1cc([C@@H]2C[C@H]2c2c(C(=O)O)cnn2-c2cccc(-c3cccc(OCC4CCCCC4C(F)(F)F)c3)c2)nn1` (mixture of isomers) [Example 148, 5-((1,2-trans)-2-(1-Methyl-1H-1,2,3-triazol-4-yl)cyclopropyl)-1-(3′-((2-(trifluoromethyl)cyclohexyl)methoxy)-[1,1′-biphenyl]-3-yl)-1H-pyrazole-4-carboxylic acid], the IC50 in experiment [1] is under 10 nM; in experiment [2], 100 to 1000 nM.
For `Cn1cc([C@@H]2C[C@H]2c2c(C(=O)O)cnn2-c2cccc(-c3cccc(OCC4CCSCC4)c3)c2)nn1` (racemic) [Example 149, 5-((1,2-trans)-2-(1-Methyl-1H-1,2,3-triazol-4-yl)cyclopropyl)-1-(3′-((tetrahydro-2H-thiopyran-4-yl)methoxy)-[1,1′-biphenyl]-3-yl)-1H-pyrazole-4-carboxylic acid], the values for the IC50 in experiment [1] and in experiment [2] were 10 to 100 nM and 100 to 1000 nM, respectively.
As for `CCC1CCC(COc2cccc(-c3cccc(-n4ncc(C(=O)O)c4[C@@H]4C[C@H]4c4cn(C)nn4)c3)c2)CC1` (mixture of isomers) [Example 150, 1-(3′-((4-Ethylcyclohexyl)methoxy)-[1,1′-biphenyl]-3-yl)-5-((1,2-trans)-2-(1-methyl-1H-1,2,3-triazol-4-yl)cyclopropyl)-1H-pyrazole-4-carboxylic acid], the IC50 lay within 10 to 100 nM in experiment [1] and 100 to 1000 nM in experiment [2].
`Cn1cc([C@@H]2C[C@H]2c2c(C(=O)O)cnn2-c2cccc(-c3cccc(OCC4CCCCC4)c3F)c2)nn1` (racemic) [Example 152, 1-(3′-(Cyclohexylmethoxy)-2′-fluoro-[1,1′-biphenyl]-3-yl)-5-((1,2-trans)-2-(1-methyl-1H-1,2,3-triazol-4-yl)cyclopropyl)-1H-pyrazole-4-carboxylic Acid]: the IC50 in experiment [1] lay in the range of 10 to 100 nM; in experiment [2] it was 100 to 1000 nM.
On to `Cn1cc([C@@H]2C[C@H]2c2c(C(=O)O)cnn2-c2cccc(-c3cccc(OC(C4CCCCC4)C(F)(F)F)c3)c2)nn1` (mixture of isomers) [Example 157, 1-(3′-(1-Cyclohexyl-2,2,2-trifluoroethoxy)-[1,1′-biphenyl]-3-yl)-5-((1,2-trans)-2-(1-methyl-1H-1,2,3-triazol-4-yl)cyclopropyl)-1H-pyrazole-4-carboxylic Acid], for which the IC50 in experiment [1] lay in the range of 10 to 100 nM; in experiment [2], 100 to 1000 nM.
As for `CO[C@H]1CC[C@H](COc2cccc(-c3cccc(-n4ncc(C(=O)O)c4[C@H]4C[C@@H]4c4cn(C)nn4)c3)c2)CC1` (racemic) [Example 176, 1-(3′-(((1R,4S)-4-Methoxycyclohexyl)methoxy)-[1,1′-biphenyl]-3-yl)-5-((1,2-trans)-2-(1-methyl-1H-1,2,3-triazol-4-yl)cyclopropyl)-1H-pyrazole-4-carboxylic acid], the IC50 lay within 10 to 100 nM in experiment [1] and 100 to 1000 nM in experiment [2].
In the case of `COC1CCCCC1COc1cccc(-c2cccc(-n3ncc(C(=O)O)c3[C@H]3C[C@@H]3c3cn(C)nn3)c2)c1` (mixture of isomers) [Example 177, 1-(3′-((2-Methoxycyclohexyl)methoxy)-[1,1′-biphenyl]-3-yl)-5-((1,2-trans)-2-(1-methyl-1H-1,2,3-triazol-4-yl)cyclopropyl)-1H-pyrazole-4-carboxylic acid], the IC50 in experiment [1] and in experiment [2] was 100 to 1000 nM each time.
As for `COC1CCCC(COc2cccc(-c3cccc(-n4ncc(C(=O)O)c4[C@H]4C[C@@H]4c4cn(C)nn4)c3)c2)C1` (mixture of isomers) [Example 178, 1-(3′-((3-Methoxycyclohexyl)methoxy)-[1,1′-biphenyl]-3-yl)-5-((1,2-trans)-2-(1-methyl-1H-1,2,3-triazol-4-yl)cyclopropyl)-1H-pyrazole-4-carboxylic acid], the IC50 in experiment [1] was 10 to 100 nM; in experiment [2] it was 100 to 1000 nM.
As for `Cn1cc([C@H]2C[C@@H]2c2c(C(=O)O)cnn2-c2cccc(-c3cccc(OC[C@H]4CC[C@H](Cl)CC4)c3)c2)nn1` (racemic) [Example 185, 1-(3′-((4-Chlorocyclohexyl)methoxy)-[1,1′-biphenyl]-3-yl)-5-((1,2-trans)-2-(1-methyl-1H-1,2,3-triazol-4-yl)cyclopropyl)-1H-pyrazole-4-carboxylic Acid], the figures for the IC50 in experiment [1] and in experiment [2] were 10 to 100 nM and 100 to 1000 nM, respectively.
In the same order, the values of `Cn1cc([C@H]2C[C@@H]2c2c(C(=O)O)cnn2-c2cccc(-c3cccc(OCC4CCCC(Cl)C4)c3)c2)nn1` (mixture of isomers) [Example 187, 1-(3′-((3-chlorocyclohexyl)methoxy)-[1,1′-biphenyl]-3-yl)-5-((1,2-trans)-2-(1-methyl-1H-1,2,3-triazol-4-yl)cyclopropyl)-1H-pyrazole-4-carboxylic acid] are 10 to 100 nM and 100 to 1000 nM.
In the same order, the values of `CCn1cc([C@H]2C[C@@H]2c2c(C(=O)O)cnn2-c2cccc(-c3cccc(OC(C)C4CCCCC4)c3)c2)nn1` (mixture of isomers) [Example 192, 1-(3′-(1-cyclohexylethoxy)-[1,1′-biphenyl]-3-yl)-5-((1,2-trans)-2-(1-ethyl-1H-1,2,3-triazol-4-yl)cyclopropyl)-1H-pyrazole-4-carboxylic acid] are 10 to 100 nM and 100 to 1000 nM.
Take `CCC[C@@H]1CCCCN1C(=O)c1cccc(-c2cccc(-n3ncc(C(=O)O)c3[C@H]3C[C@@H]3c3cn(CC)nn3)c2)c1` (racemic) [Example 201, 5-((1,2-trans)-2-(1-Ethyl-1H-1,2,3-triazol-4-yl)cyclopropyl)-1-(3′-((R)-2-propylpiperidine-1-carbonyl)-[1,1′-biphenyl]-3-yl)-1H-pyrazole-4-carboxylic acid]: the IC50 is under 10 nM in experiment [1] and 10 to 100 nM in experiment [2].
